pKd: −log10 of the molar value. Positions of bridges follow the written chain, without caps; N, C: chain ends. Non-standard residues stand in square brackets, D forms with d. Residues, ends and D or L forms follow the SMILES beside them. Hyp = O=C(O)[C@@H]1C[C@@H](O)CN1; Aib = CC(C)(N)C(=O)O
How the values were obtained:
α9 nAChR = target: T1, α9 nAChR (Homo sapiens, UniProt Q9UGM1); experiment: BLI (biolayer interferometry) affinity of peptides to α9 nAChR; type: binding; settings: NTA sensor, α9 nAChR 5 µg/mL, peptide 1.372-1000 nM in PBS
T1 construct: inferred from capture on NTA sensor
T1 sequence (Q9UGM1 23-479): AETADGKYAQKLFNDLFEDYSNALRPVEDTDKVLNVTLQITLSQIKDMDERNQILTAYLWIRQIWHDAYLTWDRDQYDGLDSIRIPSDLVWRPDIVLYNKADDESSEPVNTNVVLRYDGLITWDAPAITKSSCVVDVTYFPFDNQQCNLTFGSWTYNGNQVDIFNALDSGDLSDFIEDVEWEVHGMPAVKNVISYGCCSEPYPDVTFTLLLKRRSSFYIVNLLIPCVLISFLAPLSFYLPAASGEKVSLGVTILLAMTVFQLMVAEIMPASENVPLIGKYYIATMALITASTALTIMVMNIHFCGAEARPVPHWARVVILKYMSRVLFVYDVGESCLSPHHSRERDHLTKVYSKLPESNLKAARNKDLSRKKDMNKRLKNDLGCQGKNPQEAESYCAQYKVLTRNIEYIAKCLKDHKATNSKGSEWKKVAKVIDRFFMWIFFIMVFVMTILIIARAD
From the text: (§1) BLI is a label-free technology that converts optical interference signals occurring on the surface of BLI biosensors into real-time response signals. By monitoring the molecular binding process in real time, the system determines association rate constants (ka or kon), dissociation rate constants (kd or koff), and initial binding rates, and calculates affinity (KD) by fitting analysis. Here are the specific procedures: NTA sensors (Sartorius) were placed in a pre-wetting tray, which was then positioned in a black 96-well plate with 200 µL PBS per well. The NTA sensors were pre-wetted for at least 15 minutes. The target protein α9 nAChR was diluted in PBS to 5 µg/mL, with 200 µL added per well. Test peptides were dissolved in PBS and serially diluted threefold, with concentrations from high to low as 1000 nM, 333.3 nM, 111.1 nM, 37.04 nM, 12.35 nM, 4.115 nM, and 1.372 nM, with an additional well with PBS only as a zeroconcentration control. After equilibrating the instrument baseline, the NTA sensor was used to immobilize the target protein α9 nAChR. Once immobilization was complete, the baseline was re-equilibrated, followed by a 5-minute association and a 5-minute dissociation phase. Affinity measurements of the test peptides were conducted sequentially using the above procedure. The procedure for measuring peptide affinity to α7 nAChR was similar, except that the α7 nAChR concentration was 20 µg/mL. Tables 2 and 3 show the BLI-determined affinities of alanine-scan peptide analogs with target proteins, which identified sites on the parent peptide suitable for modification. Subsequently, single-site non-natural amino acid substituted peptides were evaluated by BLI for target protein affinity. Finally, multi-site combinatorial modified peptides were measured for affinity by BLI, leading to the selection of high-affinity peptides for further screen and drug development potential. Table 2 Test Results for Affinity of Modified Peptides to α9 nAChR

[1] = test system: mouse oxaliplatin acute chemotherapy pain model; experiment: Mouse oxaliplatin chemotherapy pain model, multiple peptides (Example 8); type: in vivo; settings: single dose 3 mg/kg s.c., 0.5-8 h post-dose, n=3
Protocol: Oxaliplatin was dissolved in 5% glucose solution to a concentration of 1 mg/mL. For model induction, each male C57 mouse (Shanghai Bikai Keyi Biotechnology Co., Ltd.) received a single intraperitoneal injection of oxaliplatin at 10 mg/kg. Mice in the negative control or blank control group received 5% glucose solution. Approximately one week after model induction, mechanical pain thresholds of the mice were measured three times per mouse, and the average value was calculated. Mice were then randomly assigned to groups based on their pain thresholds. Drug administration was carried out according to the dosing schedule shown in Table 7, with a single dose per mouse. Mechanical pain thresholds were measured at 0.5, 1, 2, 4, 6, and 8 h post-dose. […] Table 7 Dosing Scheme for Oxaliplatin Chemotherapy Pain Model in Mice

[2] = Plasma stability of AJ003-40 and AJ003-24 (HPLC, Example 4); type: in vitro ADME; settings: human plasma; for main peak area: 2 mg/mL
Protocol: Peptides AJ003-40 and AJ003-24 were separately weighed and mixed with human plasma to prepare solutions at 2 mg/mL. 300 µL of peptide-containing plasma was mixed with 300 µL acetonitrile, centrifuged at 4°C and 12,000 rpm for 5 minutes, and the supernatant was filtered through an organic membrane. 200 µL of the filtrate was transferred to an LC vial as the 0 h sample. Peptide-containing plasma was incubated in a 37°C water bath. For AJ003-40, 300 µL of plasma was sampled at 24 h, mixed with 300 µL acetonitrile, centrifuged, filtered, and 200 µL of the filtrate was transferred to an LC vial as the 24 h sample. For AJ003-24, 300 µL of plasma was sampled at 22 h, processed similarly, and 200 µL of the filtrate was transferred to an LC vial as the 22 h sample.

α7 nAChR = α7 nAChR (Homo sapiens, UniProt P36544); experiment: BLI (biolayer interferometry) affinity of peptides to α7 nAChR; type: binding; parameters: inferred from the 'similar' procedure on NTA sensors; settings: NTA sensor, α7 nAChR 20 µg/mL, peptide 1.372-1000 nM in PBS
Sequence of α7 nAChR (P36544 23-502): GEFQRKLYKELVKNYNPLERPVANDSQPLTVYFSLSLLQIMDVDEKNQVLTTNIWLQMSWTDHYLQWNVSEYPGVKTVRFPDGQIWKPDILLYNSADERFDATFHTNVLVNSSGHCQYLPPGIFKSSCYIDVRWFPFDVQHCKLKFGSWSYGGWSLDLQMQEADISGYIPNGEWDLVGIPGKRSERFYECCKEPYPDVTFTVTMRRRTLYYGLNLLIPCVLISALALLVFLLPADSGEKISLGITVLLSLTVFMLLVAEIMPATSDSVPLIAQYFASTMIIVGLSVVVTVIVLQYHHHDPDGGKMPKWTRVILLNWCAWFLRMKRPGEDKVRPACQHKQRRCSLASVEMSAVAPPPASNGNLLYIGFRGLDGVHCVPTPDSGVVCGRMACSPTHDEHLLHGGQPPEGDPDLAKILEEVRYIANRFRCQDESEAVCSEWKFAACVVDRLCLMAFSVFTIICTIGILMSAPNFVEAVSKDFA
From the text: as §1

α9α10 nAChRs = α9α10 nAChRs (Homo sapiens, UniProt Q9GZZ6+Q9UGM1); settings: cited from earlier work
Sequence of α9α10 nAChRs (Q9UGM1 26-479 limits assumed): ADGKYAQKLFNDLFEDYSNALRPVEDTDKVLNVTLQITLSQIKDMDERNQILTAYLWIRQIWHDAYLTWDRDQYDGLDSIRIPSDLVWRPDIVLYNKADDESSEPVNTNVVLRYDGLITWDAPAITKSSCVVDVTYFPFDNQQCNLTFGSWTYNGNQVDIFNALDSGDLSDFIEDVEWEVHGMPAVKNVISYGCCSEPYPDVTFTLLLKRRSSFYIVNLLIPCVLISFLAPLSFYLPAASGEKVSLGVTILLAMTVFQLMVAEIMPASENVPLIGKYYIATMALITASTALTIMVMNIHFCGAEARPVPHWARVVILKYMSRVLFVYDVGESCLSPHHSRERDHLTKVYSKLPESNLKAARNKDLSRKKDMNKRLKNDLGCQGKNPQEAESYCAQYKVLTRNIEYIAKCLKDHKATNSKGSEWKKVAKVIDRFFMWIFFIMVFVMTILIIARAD
Sequence of α9α10 nAChRs (Q9GZZ6 25-450): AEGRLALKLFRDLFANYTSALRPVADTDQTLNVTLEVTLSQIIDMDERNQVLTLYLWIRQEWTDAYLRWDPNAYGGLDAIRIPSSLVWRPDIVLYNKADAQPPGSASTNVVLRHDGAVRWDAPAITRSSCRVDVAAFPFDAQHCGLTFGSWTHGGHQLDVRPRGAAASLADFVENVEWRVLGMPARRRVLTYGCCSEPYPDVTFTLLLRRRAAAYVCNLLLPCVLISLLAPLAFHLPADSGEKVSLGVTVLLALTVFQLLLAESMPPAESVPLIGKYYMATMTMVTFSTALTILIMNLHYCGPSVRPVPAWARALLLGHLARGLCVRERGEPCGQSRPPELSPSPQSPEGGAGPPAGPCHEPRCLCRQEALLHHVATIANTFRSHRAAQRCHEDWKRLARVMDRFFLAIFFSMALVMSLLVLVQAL

Cav2.2 channel = Cav2.2 channel (Homo sapiens, UniProt Q00975); settings: cited from earlier work
Sequence of Cav2.2 channel (Q00975 whole entry, looked up): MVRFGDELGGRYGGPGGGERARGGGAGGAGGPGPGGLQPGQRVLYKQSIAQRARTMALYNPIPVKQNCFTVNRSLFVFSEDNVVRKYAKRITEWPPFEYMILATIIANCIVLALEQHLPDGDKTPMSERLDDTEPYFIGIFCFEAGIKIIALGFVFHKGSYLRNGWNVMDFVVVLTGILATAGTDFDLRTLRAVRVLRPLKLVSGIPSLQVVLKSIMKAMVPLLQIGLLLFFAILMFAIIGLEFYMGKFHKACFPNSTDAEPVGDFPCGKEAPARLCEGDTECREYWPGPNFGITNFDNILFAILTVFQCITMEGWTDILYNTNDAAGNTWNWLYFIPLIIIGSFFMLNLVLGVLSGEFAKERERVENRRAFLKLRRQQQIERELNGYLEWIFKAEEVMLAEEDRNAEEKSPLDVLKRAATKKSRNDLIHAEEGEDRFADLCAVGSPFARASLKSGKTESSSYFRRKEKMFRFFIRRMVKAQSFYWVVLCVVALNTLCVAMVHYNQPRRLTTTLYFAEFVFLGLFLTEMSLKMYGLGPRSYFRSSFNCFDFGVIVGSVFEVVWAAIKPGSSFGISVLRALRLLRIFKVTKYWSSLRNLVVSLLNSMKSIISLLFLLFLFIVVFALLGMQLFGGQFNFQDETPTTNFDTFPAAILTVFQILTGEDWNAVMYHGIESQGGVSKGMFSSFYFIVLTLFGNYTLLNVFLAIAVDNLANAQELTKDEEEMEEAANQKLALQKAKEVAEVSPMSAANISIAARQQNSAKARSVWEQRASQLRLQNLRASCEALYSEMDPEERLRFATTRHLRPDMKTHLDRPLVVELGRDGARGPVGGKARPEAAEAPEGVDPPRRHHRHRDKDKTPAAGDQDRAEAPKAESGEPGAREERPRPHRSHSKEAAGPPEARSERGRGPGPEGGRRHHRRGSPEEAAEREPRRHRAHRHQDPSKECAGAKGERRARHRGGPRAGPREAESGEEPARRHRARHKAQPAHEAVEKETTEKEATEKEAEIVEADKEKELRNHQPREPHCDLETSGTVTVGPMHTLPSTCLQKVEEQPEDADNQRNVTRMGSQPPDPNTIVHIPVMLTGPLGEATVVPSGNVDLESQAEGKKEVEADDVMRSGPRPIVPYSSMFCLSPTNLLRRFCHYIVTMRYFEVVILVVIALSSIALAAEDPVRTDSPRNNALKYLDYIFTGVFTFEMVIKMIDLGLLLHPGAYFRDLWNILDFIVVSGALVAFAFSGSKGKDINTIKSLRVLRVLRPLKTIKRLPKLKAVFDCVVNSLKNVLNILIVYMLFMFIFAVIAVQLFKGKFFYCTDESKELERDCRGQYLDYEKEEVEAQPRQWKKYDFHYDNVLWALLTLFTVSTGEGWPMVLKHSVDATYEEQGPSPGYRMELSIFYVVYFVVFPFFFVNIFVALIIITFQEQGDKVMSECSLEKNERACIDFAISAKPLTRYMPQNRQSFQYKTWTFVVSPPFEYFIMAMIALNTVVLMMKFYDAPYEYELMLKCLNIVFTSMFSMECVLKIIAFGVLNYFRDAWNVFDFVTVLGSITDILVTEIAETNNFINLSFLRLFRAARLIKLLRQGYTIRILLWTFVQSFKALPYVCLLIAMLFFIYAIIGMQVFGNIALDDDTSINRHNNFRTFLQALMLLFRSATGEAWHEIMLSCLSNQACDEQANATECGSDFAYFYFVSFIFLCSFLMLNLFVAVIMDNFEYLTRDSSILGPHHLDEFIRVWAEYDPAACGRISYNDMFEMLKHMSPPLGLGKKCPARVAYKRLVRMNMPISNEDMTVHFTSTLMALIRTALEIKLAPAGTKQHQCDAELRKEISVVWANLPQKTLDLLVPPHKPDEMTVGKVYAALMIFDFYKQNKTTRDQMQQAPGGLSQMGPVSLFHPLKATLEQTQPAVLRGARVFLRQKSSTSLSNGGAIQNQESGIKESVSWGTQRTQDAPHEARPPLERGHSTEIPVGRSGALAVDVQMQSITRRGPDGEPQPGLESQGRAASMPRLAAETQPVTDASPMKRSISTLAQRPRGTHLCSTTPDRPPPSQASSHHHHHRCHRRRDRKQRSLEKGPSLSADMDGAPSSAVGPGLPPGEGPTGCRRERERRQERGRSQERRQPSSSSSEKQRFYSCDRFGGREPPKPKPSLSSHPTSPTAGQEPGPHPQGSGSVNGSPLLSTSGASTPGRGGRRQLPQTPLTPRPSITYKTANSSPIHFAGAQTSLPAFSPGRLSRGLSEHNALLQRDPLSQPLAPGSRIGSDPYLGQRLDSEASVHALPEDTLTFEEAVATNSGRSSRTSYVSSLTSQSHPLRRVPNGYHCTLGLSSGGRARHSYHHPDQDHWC

For CC(C)C[C@H](NC(=O)[C@@H](NC(=O)[C@H]1CSSC[C@H](NC(=O)[C@H](CO)NC(=O)CN)C(=O)N[C@@H](CO)C(=O)N[C@H]([C@H](C)O)C(=O)N2C[C@H](O)C[C@H]2C(=O)N2CCC[C@H]2C(=O)N[C@@H](CO)C(=O)N1)C(C)C)C(=O)N[C@@H](Cc1ccc(O)cc1)C(=O)N[C@@H](CO)C(=O)O [AJ003-16, GSCS-(D-Thr)-Hyp-PS-(D-Cys)-VLYS (3,9 disulfide bond)] (H-GSCS[dT][Hyp]PS[dC]VLYS-OH; disulfide 3-9), the pKd (α9 nAChR) was 7.45.

Work on CC(C)C[C@H](NC(=O)[C@@H](NC(=O)[C@H]1CSSC[C@H](NC(=O)[C@H](CO)NC(=O)CN)C(=O)N[C@@H](CO)C(=O)N[C@H]([C@H](C)O)C(=O)N2CCC[C@H]2C(=O)N2C[C@H](O)C[C@H]2C(=O)N[C@@H](CO)C(=O)N1)C(C)C)C(=O)N[C@@H](Cc1ccc(O)cc1)C(=O)N[C@@H](CO)C(=O)O [AJ003-17, GSCS-(D-Thr)-P-Hyp-S-(D-Cys)-VLYS (3,9 disulfide bond)] (H-GSCS[dT]P[Hyp]S[dC]VLYS-OH; disulfide 3-9) yielded a pKd (α9 nAChR) of 6.96.

With CC(C)C[C@H](NC(=O)[C@@H](NC(=O)[C@H]1CSSC[C@H](NC(=O)[C@H](CO)NC(=O)CN)C(=O)N[C@@H](CO)C(=O)N[C@H]([C@H](C)O)C(=O)N2CCC[C@H]2C(=O)N2CCC[C@H]2C(=O)NCC(=O)N1)C(C)C)C(=O)N[C@@H](Cc1ccc(O)cc1)C(=O)N[C@@H](CO)C(=O)O [AJ003-24, GSCS-(D-Thr)-PPG-(D-Cys)-VLYS (3,9 disulfide bond)] (H-GSCS[dT]PPG[dC]VLYS-OH; disulfide 3-9) the “analgesic activity against oxaliplatin-induced chemotherapy pain (mechanical pain threshold compared with the model group)” value [1] was “ineffective”, the main peak area ([2]; 0 h) was 746.80 and the main peak area ([2]; 37°C, 22 h) was 267.45. It also gave a metabolised at 22 h, 2 mg/mL ([2]; 37°C, 22 h, read-out: degradation) of 64.2%.

With CC(C)C[C@H](NC(=O)C(C)(C)NC(=O)[C@H]1CSSC[C@H](NC(=O)[C@H](CO)NC(=O)CN)C(=O)N[C@@H](CO)C(=O)N[C@H]([C@H](C)O)C(=O)N2CCC[C@H]2C(=O)N2CCC[C@H]2C(=O)N[C@@H](CO)C(=O)N1)C(=O)N[C@@H](Cc1ccc(O)cc1)C(=O)N[C@@H](CO)C(=O)O [AJ003-25, GSCS-(D-Thr)-PPS-(D-Cys)-Aib-LYS (3,9 disulfide bond)] (H-GSCS[dT]PPS[dC][Aib]LYS-OH; disulfide 3-9) the pKd (α7 nAChR) was 5.33 and the “analgesic activity against oxaliplatin-induced chemotherapy pain (mechanical pain threshold compared with the model group)” value [1] was “ineffective”.

For Vc1.1, the “reduction of activity on human receptors compared to rat receptors” value (α9α10 nAChRs) is given as “approximately 100 fold”.

In the case of ziconotide, the “analgesic potency relative to opioids” value (Cav2.2 channel) is listed as “approximately 1000 times”.
